Data reported in ChEMBL document CHEMBL1201862, “PubChem BioAssay data set” (2004).
Active and inactive are the calls of the source. Cut-off read from the data, not from the text of the source: actives have a measured IC50 and inactives only a lower limit.

Target: Envelope glycoprotein gp160 (Human immunodeficiency virus 1, UniProt Q6QLK5)
Assay: cell-free HIV fusion peptide-binding blockers – biochemical, uHTS, fluorescence dequenching, […] (AID 1986)

Envelope glycoprotein gp160, sequence (Q6QLK5 whole entry, the tested form may be a part): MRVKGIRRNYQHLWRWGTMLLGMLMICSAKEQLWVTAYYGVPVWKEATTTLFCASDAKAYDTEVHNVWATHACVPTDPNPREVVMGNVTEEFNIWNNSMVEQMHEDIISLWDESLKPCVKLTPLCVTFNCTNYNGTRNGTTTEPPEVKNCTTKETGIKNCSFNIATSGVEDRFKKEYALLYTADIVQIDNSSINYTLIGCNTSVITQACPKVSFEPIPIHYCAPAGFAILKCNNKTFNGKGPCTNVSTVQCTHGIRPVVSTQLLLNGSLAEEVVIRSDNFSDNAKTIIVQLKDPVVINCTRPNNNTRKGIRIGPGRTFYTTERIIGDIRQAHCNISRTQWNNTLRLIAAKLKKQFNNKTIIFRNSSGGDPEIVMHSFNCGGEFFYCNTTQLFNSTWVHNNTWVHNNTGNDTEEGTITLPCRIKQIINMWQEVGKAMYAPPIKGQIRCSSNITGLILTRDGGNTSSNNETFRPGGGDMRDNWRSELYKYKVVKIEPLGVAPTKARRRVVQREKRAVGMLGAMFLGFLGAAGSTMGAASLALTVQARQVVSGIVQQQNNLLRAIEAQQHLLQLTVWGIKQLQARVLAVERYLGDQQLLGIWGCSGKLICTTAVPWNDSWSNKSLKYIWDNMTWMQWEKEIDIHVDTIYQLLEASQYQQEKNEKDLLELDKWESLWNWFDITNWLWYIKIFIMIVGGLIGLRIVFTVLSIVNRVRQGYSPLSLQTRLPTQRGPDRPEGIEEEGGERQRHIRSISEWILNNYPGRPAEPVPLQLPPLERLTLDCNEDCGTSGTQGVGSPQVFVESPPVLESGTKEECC

**Q.** For Cc1[nH]n(-c2ccccc2)c(=O)c1/C=C1/C(=O)NN(c2ccc(F)c(Cl)c2)C1=O, which IC50 is on record?
**A.** 12.1 µM (active)
